Tests used:
IRAK1 = IRAK1 (Homo sapiens (Human), UniProt P51617); experiment: IRAK1 Enzymatic Assay; type: biochemical; settings: His-TEV-IRAK1 (194-712), ATP 1 μM, 3 hours at 30° C.
Experimental: IRAK1 is a human purified recombinant enzyme (His-TEV-IRAK1 (194-712)). In this assay, IRAK-1 hydrolyses ATP and autophosphorylates. Measurement of IRAK-1 inhibition was performed in streptavidin coated 384 well FlashPlate (PerkinElmer #SMP410A). His-TEV-IRAK-1 (15 ng/well), ATP (1 μM, [33P]ATP 0.25 μCi/well) and compounds in DMSO (range of concentrations from 20 μM to 1 nM) or controls (2% DMSO) were incubated for 3 hours at 30° C. in assay buffer: Hepes pH7.0 50 mM, Fatty acid-free BSA 0.1%, Dithiothreitol DTT 2 mM, MgCl2 10 mM, EGTA 0.5 mM, Triton-X-100 0.01%. Kinase reaction was stopped by addition of EDTA. Supernatant was discarded, plates were washed three times with 150 mM NaCl and radioactivity was then measured in a Microbeta Trilux reader.

IRAK4 = IRAK4 (Homo sapiens, UniProt Q9NWZ3); experiment: IRAK4 Enzymatic Assay; type: biochemical; settings: His-TEV-IRAK4, ATP 2 μM, STK1-biotin peptide 300 nM, 3 hours at 30° C.
Experimental: IRAK4 Enzymatic Assay IRAK4 is a human purified recombinant enzyme ([…]. IRAK4 hydrolyses ATP, autophosphorylates and phosphorylates a Serine/Threonine generic peptidic substrate (STK: 61ST1BLC from CisBio International based in Bagnols/Cèze FR). Measurement of IRAK-4 inhibition was performed in streptavidin coated 384 well FlashPlate (PerkinElmer #SM[…]). His-TEV-IRAK4 (20 ng/well), ATP (2 μM, [^33P]ATP 0.25 μCi/well), STK1-biotin peptide (300 nM) and compounds in DMSO (range of concentrations from 20 μM to 1 nM) or controls (2% DMSO) were incubated for 3 hours at 30° C. in assay buffer: Hepes pH7.0 50 mM, Fatty acid-free BSA 0.1%, Dithiothreitol DTT 2 mM, MgCl2 10 mM, EGTA 0.5 mM, Tween-20 0.01%, MnCl2 5 mM. Kinase reaction was stopped by addition of EDTA.

[1] = tested on: TLR7 induced IL-6 secretion in human mononuclear cells (PBMC's); experiment: TLR7 induced IL-6 in Human PBMC's; type: cell-based; settings: TLR7 specific ligand 2 uM overnight, IL-6 Alpha LISA
Experimental: TLR7 induced IL-6 in Human PBMC's
Human PBMC assay was used as one of the functional assays to monitor the activity of IRAK1 and IRAK4 small molecule inhibitors on TLR7 induced IL-6 secretion in human mononuclear cells (PBMC's). Human PBMCs were prepared from buffy coats (whole blood enriched with leukocytes and platelets) obtained from healthy volunteers used either fresh or frozen are plated in assay media (RPMI+2% P/S/L-glu+10% HI-FBS) and pre-treated with compounds in DMSO/media (range of concentrations from 25 uM to 0.4 nM) or controls (0.25% DMSO) for 30 minutes at 37° C. in assay media. Following pre-treatment with IRAK1 and IRAK4 inhibitors, PBMC's were stimulated with TLR7 specific ligand (2 uM) overnight (16-18 hrs) at 37° C. After incubation supernatant was transferred to 384 well PE AlphaPlate-384 (6005350) and IL-6 is quantified using Perkin Elmer IL-6 Alpha LISA kit (AL223C). Plates were read on an Envision® plate reader with Alpha Technology®.

Chain of IRAK4 (Q9NWZ3 whole entry, looked up): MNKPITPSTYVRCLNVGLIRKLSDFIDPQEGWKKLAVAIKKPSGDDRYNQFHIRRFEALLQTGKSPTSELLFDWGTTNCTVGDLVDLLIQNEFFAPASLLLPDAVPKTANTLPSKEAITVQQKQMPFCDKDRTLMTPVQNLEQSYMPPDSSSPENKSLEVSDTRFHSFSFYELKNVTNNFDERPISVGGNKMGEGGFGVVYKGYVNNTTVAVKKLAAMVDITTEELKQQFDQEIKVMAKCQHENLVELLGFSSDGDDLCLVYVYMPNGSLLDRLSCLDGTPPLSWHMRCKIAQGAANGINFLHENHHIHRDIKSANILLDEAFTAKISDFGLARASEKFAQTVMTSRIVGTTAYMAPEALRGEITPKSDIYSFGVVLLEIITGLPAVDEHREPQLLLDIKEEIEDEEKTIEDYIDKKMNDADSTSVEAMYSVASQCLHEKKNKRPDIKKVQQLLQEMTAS
Chain of IRAK1 (P51617 194-712): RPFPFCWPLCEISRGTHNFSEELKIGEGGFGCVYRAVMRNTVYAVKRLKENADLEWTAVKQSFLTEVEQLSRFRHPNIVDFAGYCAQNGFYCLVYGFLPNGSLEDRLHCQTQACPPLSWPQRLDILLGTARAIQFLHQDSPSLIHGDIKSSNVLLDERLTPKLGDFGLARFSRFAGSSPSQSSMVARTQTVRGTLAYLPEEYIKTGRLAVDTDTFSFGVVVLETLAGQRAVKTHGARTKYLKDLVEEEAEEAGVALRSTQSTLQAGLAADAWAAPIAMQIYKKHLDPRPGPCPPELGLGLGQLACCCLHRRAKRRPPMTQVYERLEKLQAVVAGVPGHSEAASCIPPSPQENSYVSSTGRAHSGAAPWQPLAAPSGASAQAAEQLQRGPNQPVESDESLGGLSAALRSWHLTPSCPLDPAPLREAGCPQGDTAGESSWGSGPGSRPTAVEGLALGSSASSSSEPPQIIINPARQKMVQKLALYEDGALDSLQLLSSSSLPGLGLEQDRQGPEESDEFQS

Compound	IC50 (IRAK1) [nM]	IC50 (IRAK4) [nM]	IC50 [1] [nM]
COc1nc2c(OCC3CCC(=O)N3)cccc2cc1C(N)=O (stereo not shown) [Compound 1, 2-Methoxy-8-(5-oxo-pyrrolidin-2-ylmethoxy)-quinoline-3-carboxylic acid amide]	> 5000	< 100	< 500
COc1cc2c(OCC3CCC(=O)N3)cccc2nc1C(N)=O (stereo not shown) [Compound 2, 3-Methoxy-5-(5-oxo-pyrrolidin-2-ylmethoxy)-quinoline-2-carboxylic acid amide]	> 5000	100 to 1000	
COc1nc2c(OC[C@@H]3CCC(=O)N3)cccc2cc1C(N)=O [Compound 3, 2-Methoxy-8-((S)-5-oxo-pyrrolidin-2-ylmethoxy)-quinoline-3-carboxylic acid amide]	1000 to 5000	< 100	< 500
CC[C@@H]1[C@H](F)C(=O)N[C@@H]1COc1cccc2cc(C(N)=O)c(OC)nc12 [Compound 4, 8-((2S,3S,4S)-3-Ethyl-4-fluoro-5-oxo-pyrrolidin-2-ylmethoxy)-2-methoxy-quinoline-3-carboxylic acid amide]	100 to 1000	< 100	< 500
COc1nc2c(OC[C@@H]3CC(F)(F)C(=O)N3)cccc2cc1C(N)=O [Compound 5, 8-((S)-4,4-Difluoro-5-oxo-pyrrolidin-2-ylmethoxy)-2-methoxy-quinoline-3-carboxylic acid amide]	1000 to 5000	< 100	< 500
CC[C@@H]1[C@H](F)C(=O)N[C@@H]1COc1nccc2cc(C(N)=O)c(OC)nc12 [Compound 6, 8-((2S,3S,4S)-3-Ethyl-4-fluoro-5-oxo-pyrrolidin-2-ylmethoxy)-2-methoxy-[1,7]naphthyridine-3-carboxylic acid amide]	1000 to 5000	< 100	

— US11542246B2, “Quinoline compounds as IRAK inhibitors and uses thereof” (Merck Patent GmbH, priority 2018, dated 2023)
